According to US20230001012A1, “COCRYSTALS OF STEROID AND SECOSTEROID COMPOUNDS AND COMPOSITIONS COMPRISING THEM” (priority 2019, published 2023):

Tests used:
Type in all cases: physicochemical
[1] = Dissolution rate of tablets in FaSSIF v2 medium (small-scale dissolution assay, UV quantification, Noyes-Whitney fit); conditions: FaSSIF v2 (pH 6.5), 25° C.; for dissolution rate: 120 minutes, 3 mm tablet
Protocol: Molar extinction coefficients of VD2, VD3 and of the coformer were determined by UV-metric titration using a GIpKa™ titrator (Sirius Analytical Instruments, UK). Briefly, a 10 mM stock solution of sample was prepared in DMSO. 50 μL of sample stock solution and 0.25 mL of a 15 mM potassium phosphate buffer were added to 10 mL of a 0.15 M KCl solution, which in turn contained 17.9 mg of FaSSIF v2 powder. The pH of the sample solution was adjusted to 2 with 0.5 M HCl before starting the titration, and then the titration was done using 0.5 M KOH up to pH 12. The UV absorption spectra (between 250 and 450 nm) of the solution were recorded at each titrant addition by a fiber optic dip-probe. The collected data were refined through the RefinamentPro software, and the pKa values and Molar Extinction Coefficients obtained by Target Factor Analysis.
• Tablet production: tablets of 3 mm diameter were done using a manual hydraulic tablet press (Applied Measurements Ltd, UK). The applied pressure was 100 Kg for 2 min. From 6 to 10 mg of each solid form, vitamin or cocrystal, were weighted. The total exposed surface area was […]. • Medium: FaSSIF v2 (pH 6.5), with corresponding amount of phosphoric (28.4 mM) acid instead of maleic acid. • Dissolution tests were performed with a small-scale dissolution assay installed in a GIpKa™ titrator (Sirius Analytical Instruments, UK). • Dissolution time and temperature: 120 minutes and 25° C. • Procedure: 15 mL of FaSSIF v2 was added into the sample vial containing the tablet. Spectra collection started immediately after. Spectra were recorded every 30 seconds between 250 and 450 nm through a Sirius D-PAS spectrometer with a bifurcated optic fibre dip probe (Hellma Analytics). The medium was stirred at a constant rate.
The concentration of cholecalciferol (VD3) or ergocalciferol (VD2) in solution at each time point is determined from the spectroscopic data by applying the Beer-Lambert law, using previously determined molar extinction coefficients of the pure APIs and the coformers. Spectrum regions where signal is saturated (A>1.5) or presenting medium interferences were discarded. Then, the concentration data were converted into absolute sample quantities, and used to generate the graphs showing the sample quantity vs. time.
Dissolution rate is obtained through the fit of the first order Noyes-Whitney exponential equation to the data: […]
In this equation, [X]t is the weight in grams of compound in solution at the experiment time (min); S is the extrapolated solubility (g) of the vitamin; kd is the rate constant for dissolution (min^−1); and t0 (min) is a term allowing for a temporal offset. Results are calculated using a refinement process in which S, kd and t0 are varied in order to minimize the root mean square deviation between the modelled concentrations and the measured concentrations. The dissolution rate (g min^−1) is given by the product kdS (T. Gravestock et al., Anal. Methods, 2011, 3, 560).

[2] = Stability of VD2 vs VD2 cocrystals (beta-sitosterol, orcinol) under two stress conditions, solid form analysed periodically by PXRD; conditions: for stability under both stress conditions (in words): 25° C./57% RH and 40° C./75% RH
Protocol: The stability of the VD2 cocrystal with beta-sitosterol and VD2 cocrystal with orcinol was studied and compared to the stability of VD2 (Form A) under two stress conditions. The samples were stored under both stress conditions inside a Series FD Binder chamber and they were analyzed periodically by PXRD. The two stress conditions were the following: • condition A: 25° C. and 57% relative humidity; • condition B: 40° C. and 75% relative humidity.
A saturated solution of sodium bromide salt (for 57% RH) and a saturated solution of sodium chloride (for 75% RH) were used to control relative humidity.

[3] = Stability of VD3:resorcinol cocrystal vs commercial VD3 in a mineral-vitamin premix containing choline chloride (HPLC-MS)
Protocol: The stability of the VD3:resorcinol cocrystal mixed in a premix that was a standard mineral-vitamin mix containing choline was studied under normal and high environmental temperature/humidity and compared to the stability of commercial VD3 for animal nutrition (Orffa D3 500) in the same premix under de same conditions.
• 25° C. and 57% humidity (temperature controlled chambers with a saturated solution of NaBr to maintain humidity at 57%); • 40° C. and 75% humidity (temperature controlled chambers with a saturated solution of NaCl to maintain humidity at 75%).
The mineral mix was supplemented to contain 750,000 UI/kg Vitamin A, 5,000 mg/kg vitamin E and 12.5% choline chloride (choline chloride, vegetal coating, 60%). VD3 final content was 1,600,000 UI/Kg (both for the cocrystal VD3:resorcinol and for the commercial VD3.
Samples (2 g) were weighted in 50 mL plastic tubes and incubated in the experimental conditions (see above). Samples for each individual time were incubated in quadruplicates to account for potential variation. Samples were prepared to be retrieved from incubators at 2, 4, 8 and 12 weeks. After each time, samples were processed and analyzed immediately (no storage).
Samples were subjected to an extraction process done in the incubation tube with the full sample to avoid sub-sampling problems. Extracted supernatant was analysed for vitamin D using and HPLC (Model 1260 Series, Agilent, Darmstadr, Germany) coupled with a MS-QQQ (Model G6420, Agilent) against a calibrated curve using a standard vitamin D3. Results are reported as a percent degradation compared with the original Vitamin concentration.

[4] = Stability of VD3 vs VD3:orcinol cocrystal under stress conditions (40° C.-75% RH), solid form analysed periodically by PXRD
Protocol: The samples were stored under these conditions inside a Series FD Binder chamber and they were analyzed periodically by PXRD. A saturated solution of sodium chloride (75%) was used to control relative humidity.

[5] = 40° C./75% H, premix with choline chloride

C=C1CC[C@H](O)C/C1=C/C=C1\CCC[C@]2(C)[C@@H]([C@H](C)/C=C/[C@H](C)C(C)C)CC[C@@H]12 [VD2, ergocalciferol]
dissolution rate [1]: 0.74 ± 0.23 nmol/min
Solid form (PXRD) under stress conditions ([2]; 25° C.-57% RH, 0 days): Form A
Solid form (PXRD) under stress conditions ([2]; 25° C.-57% RH, 370 days): Amorphous phase
stability under both stress conditions (in words) [2]: very low stability
Solid form (PXRD) under stress conditions ([2]; 40° C.-75% RH, 0 days): Form A
Solid form (PXRD) under stress conditions ([2]; 40° C.-75% RH, 210 days): Liquid phase
time at which conversion into an amorphous phase started ([2]; both stress conditions): ≤ 25 days

C=C1CCC(O)CC1=CC=C1CCCC2(C)C1CCC2C(C)C=CC(C)C(C)C.C=C1CCC(O)CC1=CC=C1CCCC2(C)C1CCC2C(C)C=CC(C)C(C)C.CCC(CCC(C)C1CCC2C3CC=C4CC(O)CCC4(C)C3CCC12C)C(C)C (stereo not drawn) [VD2:beta-sitosterol]
time remained as the same starting solid form ([2]; 25° C. and 57% of relative humidity): ≥ 370 days
stability under both stress conditions (in words) [2]: very high stability
time remained as the same starting solid form ([2]; 40° C. and 75% of relative humidity): ≥ 25 days
Solid form (PXRD) under stress conditions ([2]; 40° C.-75% RH, 210 days): Amorphous
Solid form (PXRD) under stress conditions ([2]; 40° C.-75% RH, 370 days): Amorphous

C=C1CC[C@H](O)C/C1=C/C=C1\CCC[C@]2(C)[C@@H]([C@H](C)CCCC(C)C)CC[C@@H]12 [VD3, cholecalciferol, reference compound]
stability in premix, comparison of the two environmental conditions ([3]; 25° C./57% H vs 40° C./75% H): more stable at 25° C./57% H compared with 40° C./75% H
dissolution rate [1]: 0.58 ± 0.14 nmol/min
stability under stress conditions (in words) [4]: very low stability
time to conversion into a liquid phase [4]: five
Solid form (PXRD) under stress conditions ([4]; 0 days): Form A
Solid form (PXRD) under stress conditions ([4]; 5 days): liquid

C=C1CCC(O)CC1=CC=C1CCCC2(C)C1CCC2C(C)C=CC(C)C(C)C.C=C1CCC(O)CC1=CC=C1CCCC2(C)C1CCC2C(C)CCCC(C)C (centres unmarked) [VD3-VD2]
dissolution rate [1]: 0.63 ± 0.21 nmol/min

C=C1CCC(O)CC1=CC=C1CCCC2(C)C1CCC2C(C)CCCC(C)C.Oc1cccc(O)c1 (centres unmarked) [VD3-resorcinol]
stability in premix compared with VD3 ([3]; 25° C./57% H, premix with choline chloride): more stable than VD3
change of stability in premix [3, 5]: sharp reduction in stability
stability in premix compared with commercial VD3 [3, 5]: better performance than commercial VD3
stability in premix compared with VD3 ([3]; both conditions (25° C./57% H and 40° C./75% H)): more stable than VD3
dissolution speed compared with other solid forms [1]: dissolved faster than VD2, VD3, or VD2-VD3
dissolution rate [1]: 0.94 ± 0.22 nmol/min

C=C1CCC(O)CC1=CC=C1CCCC2(C)C1CCC2C(C)CCCC(C)C.Cc1cc(O)cc(O)c1 (centres unmarked) [VD3:orcinol]
stability under stress conditions (in words) [4]: very high stability
